Laboratory results as given in patent US20100160454A1, “ANTIMICROBIAL AGENTS, COMPOSITIONS AND PRODUCTS CONTAINING THE SAME, AND METHODS OF USING THE COMPOSITIONS AND PRODUCTS” (Eastman Chemical Company, priority 2008, published 2010).

Legend:
Assay in all cases: Microbiological challenge testing in BPW broth, graded subculture counts
Type in all cases: cell-based
[1] = test system: Streptococcus mutans ATCC 35668
How it was run: (§1)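 Serial 1:10 dilutions were made in pH 7.2 phosphate buffer and spread-plated onto PCA, and colonies were counted after 48 h or more at 35 °C. In the challenge, BPW–dextrose tubes containing the test material received inoculum at 10^5–10^6 CFU/mL at time zero. Controls without test material served as reference.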

[2] = test system: Burkholderia cepacia Wild type; settings: B. cepacia
How it was run: as §1

Aeromonas sp. Wild type = test system: Aeromonas sp. Wild type
How it was run: as §1

[3] = test system: Bacillus subtilis Wild type
How it was run: as §1

[4] = test system: Pseudomonas aeruginosa Wild type; settings: P. aeruginosa
How it was run: as §1

[5] = test system: Staphylococcus aureus ATCC 25923; settings: S. aureus
How it was run: as §1

## CC(O)CO (stereo not drawn) [PG, propylene glycol]
[1]; 0.5% weight/volume
  S. mutans growth grade, 3 day: 5 (More than 10,000 colonies estimated (thus more than 100,000 CFU/mL))
  S. mutans growth grade, 13 day: 5 (More than 10,000 colonies estimated (thus more than 100,000 CFU/mL))
  S. mutans growth grade, 30 day: 5 (More than 10,000 colonies estimated (thus more than 100,000 CFU/mL))
[1]; 1.25% weight/volume
  S. mutans growth grade, 3 day: 4 (1000 to 10,000 colonies countable (thus 10,000 CFU/mL to 100,000 CFU/mL))
  S. mutans growth grade, 13 day: 4 (1000 to 10,000 colonies countable (thus 10,000 CFU/mL to 100,000 CFU/mL))
  S. mutans growth grade, 30 day: 4 (1000 to 10,000 colonies countable (thus 10,000 CFU/mL to 100,000 CFU/mL))
[1]; 2.5% weight/volume
  S. mutans growth grade, 3 day: 4 (1000 to 10,000 colonies countable (thus 10,000 CFU/mL to 100,000 CFU/mL))
  S. mutans growth grade, 13 day: 4 (1000 to 10,000 colonies countable (thus 10,000 CFU/mL to 100,000 CFU/mL))
  S. mutans growth grade, 30 day: 4 (1000 to 10,000 colonies countable (thus 10,000 CFU/mL to 100,000 CFU/mL))
[1]; 5.0% weight/volume
  S. mutans growth grade, 3 day: 4 (1000 to 10,000 colonies countable (thus 10,000 CFU/mL to 100,000 CFU/mL))
  S. mutans growth grade, 13 day: 4 (1000 to 10,000 colonies countable (thus 10,000 CFU/mL to 100,000 CFU/mL))
  S. mutans growth grade, 30 day: 4 (1000 to 10,000 colonies countable (thus 10,000 CFU/mL to 100,000 CFU/mL))
[2]; 0.5% (wt/vol), 3 day
  Grade: 5 (More than 10,000 colonies estimated (thus more than 100,000 CFU/mL))
[2]; 0.5% (wt/vol), 14 day
  Grade: 5 (More than 10,000 colonies estimated (thus more than 100,000 CFU/mL))
[2]; 0.5% (wt/vol), 30 day
  Grade: 5 (More than 10,000 colonies estimated (thus more than 100,000 CFU/mL))
[2]; 1.25% (wt/vol), 3 day
  Grade: 5 (More than 10,000 colonies estimated (thus more than 100,000 CFU/mL))
[2]; 1.25% (wt/vol), 14 day
  Grade: 5 (More than 10,000 colonies estimated (thus more than 100,000 CFU/mL))
[2]; 1.25% (wt/vol), 30 day
  Grade: 5 (More than 10,000 colonies estimated (thus more than 100,000 CFU/mL))
[2]; 2.5% (wt/vol), 3 day
  Grade: 5 (More than 10,000 colonies estimated (thus more than 100,000 CFU/mL))
[2]; 2.5% (wt/vol), 14 day
  Grade: 5 (More than 10,000 colonies estimated (thus more than 100,000 CFU/mL))
[2]; 2.5% (wt/vol), 30 day
  Grade: 5 (More than 10,000 colonies estimated (thus more than 100,000 CFU/mL))
[2]; 5.0% (wt/vol), 3 day
  Grade: 4 (1000 to 10,000 colonies countable (thus 10,000 CFU/mL to 100,000 CFU/mL))
[2]; 5.0% (wt/vol), 14 day
  Grade: 4 (1000 to 10,000 colonies countable (thus 10,000 CFU/mL to 100,000 CFU/mL))
[2]; 5.0% (wt/vol), 30 day
  Grade: 4 (1000 to 10,000 colonies countable (thus 10,000 CFU/mL to 100,000 CFU/mL))
Aeromonas sp. Wild type; 0.5% weight/volume
  Aeromonas sp growth grade, 3 day: 5 (More than 10,000 colonies estimated (thus more than 100,000 CFU/mL))
  Aeromonas sp growth grade, 14 day: 5 (More than 10,000 colonies estimated (thus more than 100,000 CFU/mL))
  Aeromonas sp growth grade, 30 day: 5 (More than 10,000 colonies estimated (thus more than 100,000 CFU/mL))
Aeromonas sp. Wild type; 1.25% weight/volume
  Aeromonas sp growth grade, 3 day: 5 (More than 10,000 colonies estimated (thus more than 100,000 CFU/mL))
  Aeromonas sp growth grade, 14 day: 5 (More than 10,000 colonies estimated (thus more than 100,000 CFU/mL))
  Aeromonas sp growth grade, 30 day: 5 (More than 10,000 colonies estimated (thus more than 100,000 CFU/mL))
Aeromonas sp. Wild type; 2.5% weight/volume
  Aeromonas sp growth grade, 3 day: 5 (More than 10,000 colonies estimated (thus more than 100,000 CFU/mL))
  Aeromonas sp growth grade, 14 day: 5 (More than 10,000 colonies estimated (thus more than 100,000 CFU/mL))
  Aeromonas sp growth grade, 30 day: 5 (More than 10,000 colonies estimated (thus more than 100,000 CFU/mL))
Aeromonas sp. Wild type; 5.0% weight/volume
  Aeromonas sp growth grade, 3 day: 5 (More than 10,000 colonies estimated (thus more than 100,000 CFU/mL))
  Aeromonas sp growth grade, 14 day: 4 (1000 to 10,000 colonies countable (thus 10,000 CFU/mL to 100,000 CFU/mL))
  Aeromonas sp growth grade, 30 day: 4 (1000 to 10,000 colonies countable (thus 10,000 CFU/mL to 100,000 CFU/mL))
[3]; 0.5% weight/volume
  B. subtillis growth grade, 3 day: 5 (More than 10,000 colonies estimated (thus more than 100,000 CFU/mL))
  B. subtillis growth grade, 14 day: 5 (More than 10,000 colonies estimated (thus more than 100,000 CFU/mL))
  B. subtillis growth grade, 30 day: 5 (More than 10,000 colonies estimated (thus more than 100,000 CFU/mL))
[3]; 1.25% weight/volume
  B. subtillis growth grade, 3 day: 5 (More than 10,000 colonies estimated (thus more than 100,000 CFU/mL))
  B. subtillis growth grade, 14 day: 4 (1000 to 10,000 colonies countable (thus 10,000 CFU/mL to 100,000 CFU/mL))
  B. subtillis growth grade, 30 day: 4 (1000 to 10,000 colonies countable (thus 10,000 CFU/mL to 100,000 CFU/mL))
[3]; 2.5% weight/volume
  B. subtillis growth grade, 3 day: 5 (More than 10,000 colonies estimated (thus more than 100,000 CFU/mL))
  B. subtillis growth grade, 14 day: 4 (1000 to 10,000 colonies countable (thus 10,000 CFU/mL to 100,000 CFU/mL))
  B. subtillis growth grade, 30 day: 4 (1000 to 10,000 colonies countable (thus 10,000 CFU/mL to 100,000 CFU/mL))
[3]; 5.0% weight/volume
  B. subtillis growth grade, 3 day: 5 (More than 10,000 colonies estimated (thus more than 100,000 CFU/mL))
  B. subtillis growth grade, 14 day: 4 (1000 to 10,000 colonies countable (thus 10,000 CFU/mL to 100,000 CFU/mL))
  B. subtillis growth grade, 30 day: 4 (1000 to 10,000 colonies countable (thus 10,000 CFU/mL to 100,000 CFU/mL))
[4]; 0.5% (wt/vol), 3 day
  Grade: 4 (1000 to 10,000 colonies countable (thus 10,000 CFU/mL to 100,000 CFU/mL))
[4]; 0.5% (wt/vol), 13 day
  Grade: 4 (1000 to 10,000 colonies countable (thus 10,000 CFU/mL to 100,000 CFU/mL))
[4]; 0.5% (wt/vol), 30 day
  Grade: 5 (More than 10,000 colonies estimated (thus more than 100,000 CFU/mL))
[4]; 1.25% (wt/vol), 3 day
  Grade: 4 (1000 to 10,000 colonies countable (thus 10,000 CFU/mL to 100,000 CFU/mL))
[4]; 1.25% (wt/vol), 13 day
  Grade: 4 (1000 to 10,000 colonies countable (thus 10,000 CFU/mL to 100,000 CFU/mL))
[4]; 1.25% (wt/vol), 30 day
  Grade: 4 (1000 to 10,000 colonies countable (thus 10,000 CFU/mL to 100,000 CFU/mL))
[4]; 2.5% (wt/vol), 3 day
  Grade: 4 (1000 to 10,000 colonies countable (thus 10,000 CFU/mL to 100,000 CFU/mL))
[4]; 2.5% (wt/vol), 13 day
  Grade: 4 (1000 to 10,000 colonies countable (thus 10,000 CFU/mL to 100,000 CFU/mL))
[4]; 2.5% (wt/vol), 30 day
  Grade: 4 (1000 to 10,000 colonies countable (thus 10,000 CFU/mL to 100,000 CFU/mL))
[4]; 5.0% (wt/vol), 3 day
  Grade: 4 (1000 to 10,000 colonies countable (thus 10,000 CFU/mL to 100,000 CFU/mL))
[4]; 5.0% (wt/vol), 13 day
  Grade: 4 (1000 to 10,000 colonies countable (thus 10,000 CFU/mL to 100,000 CFU/mL))
[4]; 5.0% (wt/vol), 30 day
  Grade: 4 (1000 to 10,000 colonies countable (thus 10,000 CFU/mL to 100,000 CFU/mL))
[5]; 0.5% (wt/vol), 3 day
  Grade: 5 (More than 10,000 colonies estimated (thus more than 100,000 CFU/mL))
[5]; 0.5% (wt/vol), 14 day
  Grade: 4 (1000 to 10,000 colonies countable (thus 10,000 CFU/mL to 100,000 CFU/mL))
[5]; 0.5% (wt/vol), 30 day
  Grade: 4 (1000 to 10,000 colonies countable (thus 10,000 CFU/mL to 100,000 CFU/mL))
[5]; 1.25% (wt/vol), 3 day
  Grade: 4 (1000 to 10,000 colonies countable (thus 10,000 CFU/mL to 100,000 CFU/mL))
[5]; 1.25% (wt/vol), 14 day
  Grade: 4 (1000 to 10,000 colonies countable (thus 10,000 CFU/mL to 100,000 CFU/mL))
[5]; 1.25% (wt/vol), 30 day
  Grade: 4 (1000 to 10,000 colonies countable (thus 10,000 CFU/mL to 100,000 CFU/mL))
[5]; 2.5% (wt/vol), 3 day
  Grade: 4 (1000 to 10,000 colonies countable (thus 10,000 CFU/mL to 100,000 CFU/mL))
[5]; 2.5% (wt/vol), 14 day
  Grade: 4 (1000 to 10,000 colonies countable (thus 10,000 CFU/mL to 100,000 CFU/mL))
[5]; 2.5% (wt/vol), 30 day
  Grade: 4 (1000 to 10,000 colonies countable (thus 10,000 CFU/mL to 100,000 CFU/mL))
[5]; 5.0% (wt/vol), 3 day
  Grade: 4 (1000 to 10,000 colonies countable (thus 10,000 CFU/mL to 100,000 CFU/mL))
[5]; 5.0% (wt/vol), 14 day
  Grade: 4 (1000 to 10,000 colonies countable (thus 10,000 CFU/mL to 100,000 CFU/mL))
[5]; 5.0% (wt/vol), 30 day
  Grade: 4 (1000 to 10,000 colonies countable (thus 10,000 CFU/mL to 100,000 CFU/mL))
